Laboratory results as given in patent US20260209253A1, “SILVER ION COMPLEX GEMINI QUATERNARY AMMONIUM SALT: PREPARATION METHOD AND APPLICATIONS” (ANHUI KIWI BIOTECH CO., LTD, priority 2023, published 2026).

Tested on: Escherichia coli
Assay: suspension quantitative bactericidal test (2.1.1.7.4, Disinfection Technical Specifications 2002 edition), 30 min
Type: cell-based
Conditions: for antibacterial performance (in words): Table 3, 0.0015625% and 0.00078125% aqueous solutions
Description: (§1) Referring to 2.1.1.7.4 suspension quantitative bactericidal test (2002 edition of Disinfection Technical Specifications), neutralizer was prepared: 2.1% lecithin+2.0% glucose+0.5% sodium thiosulfate+1.5% tween-80+0.5% peptone+1.2% sodium sulfite aqueous solution. C6-S—Cl (Example 1), C8-S—Cl (Example 3) and C10-S—Cl (Example 5) were diluted into 0.0015625% and 0.00078125% aqueous solutions, and the bactericidal experiment was carried out for 30 min to Escherichia coli.
as §1, with “solution.” for “solution. C6-S—Cl (Example 1),”, “3), C8-S—Br (Example 4)” for “3)”, “C8-S—NO3” for “C10-S—Cl”, “7)” for “5)”
Referring to 2.1.1.7.4 suspension quantitative bactericidal test (2002 edition of Disinfection Technical Specifications), neutralizer was prepared: 2.1% lecithin+2.0% glucose+0.5% sodium thiosulfate+1.5% tween-80+0.5% peptone+1.2% sodium sulfite aqueous solution. C8-S—Cl (Example 3), C8-S—NO3—Ag^+ (Example 3), C8-S—CI—Cu^2+ (ratio 1), C8-S—CI—Mn^2+ (ratio 2), C8-S—CI—Fe^3+ (ratio 3), AgNO3, CuCl2, MnCl2, and FeCl3 were dissolved to 0.0015625% and 0.00078125% aqueous solution.
Referring to 2.1.1.7.4 suspension quantitative bactericidal test (2002 edition of Disinfection Technical Specifications), neutralizer was prepared: 2.1% lecithin+2.0% glucose+0.5% sodium thiosulfate+1.5% tween-80+0.5% peptone+1.2% sodium sulfite aqueous solution. C8-S—Cl (Example 3), C8-S—NO3 (Example 7) and C8-S—NO3—Ag^+ (Example 3) were configured into 0.0015625%, 0.00078125% and 0.000390625% aqueous solutions.
Referring to 2.1.1.7.4 suspension quantitative bactericidal test (2002 edition of Disinfection Technical Specifications), neutralizer was prepared: 2.1% lecithin+2.0% glucose+0.5% sodium thiosulfate+1.5% tween-80+0.5% peptone+1.2% sodium sulfite aqueous solution. The bactericidal experiment was carried out on E. coli for 30 min by preparing the silver-ion complex Gemini quaternary ammonium salt (Example 3), C10 chlorinated sulfur-free Gemini quaternary ammonium salt (Comparative example 4) and uncomplex silver-ion Gemini quaternary ammonium salt (Comparative example 4) into 0.0015625%, 0.00078125% and 0.000390625% aqueous solutions.

[1] = Table 1, 0.00078125% aqueous solution, Escherichia coli
[2] = Table 1, 0.0015625% aqueous solution, Escherichia coli
[3] = Table 3, 0.00078125% aqueous solution, Escherichia coli
[4] = Table 3, 0.0015625% aqueous solution, Escherichia coli
[5] = Table 2, 0.00078125% aqueous solution, Escherichia coli
[6] = Table 2, 0.0015625% aqueous solution, Escherichia coli
[7] = Table 5, 0.000390625% aqueous solution, E. coli
[8] = Table 5, 0.00078125% aqueous solution, E. coli
[9] = Table 5, 0.0015625% aqueous solution, E. coli
[10] = Table 4, 0.000390625% aqueous solution, Escherichia coli
[11] = Table 4, 0.00078125% aqueous solution, Escherichia coli
[12] = Table 4, 0.0015625% aqueous solution, Escherichia coli

SMILES	Treated (cfu/mL) [1]	sterilizing rate [1]	Treated (cfu/mL) [2]	sterilizing rate [2]	Treated (cfu/mL) [3]	sterilizing rate [3]	antibacterial performance (in words) (Escherichia coli)	Treated (cfu/mL) [4]	sterilizing rate [4]	Treated (cfu/mL) [5]	sterilizing rate [5]	Treated (cfu/mL) [6]	sterilizing rate [6]	further results
CCCCCCCCCCSCCC(=O)OCC[N+](C)(C)CCC[N+](C)(C)CCOC(=O)CCSCCCCCCCCCC [Example C10-S-Cl]	4.6 × 10^4 cfu/mL	99.841%	5.8 × 10^2 cfu/mL	>99.99%	–	–	–	–	–	–	–	–	–	–
[Cl][Mn][Cl] [MnCl2, reference compound]	–	–	–	–	8.9 × 10^7 cfu/mL	No bactericidal effect	did not show any antibacterial performance	2.3 × 10^7 cfu/mL	No bactericidal effect	–	–	–	–	–
CCCCCCCCSCCC(=O)OCC[N+](C)(C)CCC[N+](C)(C)CCOC(=O)CCSCCCCCCCC [Example C8-S-Cl]	1.9 × 10^2 cfu/mL	>99.99%	90 cfu/mL	>99.999%	1.8 × 10^3 cfu/mL	>99.99%	–	86 cfu/mL	>99.999%	1.7 × 10^3 cfu/mL	>99.99%	79 cfu/mL	>99.999%	bactericidal rate (Table 1, 0.0015625% and 0.00078125% aqueous solutions, Escherichia coli): above 99.99%; Treated (cfu/mL) [7]: 2.6 × 10^5 cfu/mL; sterilizing rate [7]: 99.985%; Treated (cfu/mL) [8]: 1.8 × 10^3 cfu/mL; sterilizing rate [8]: >99.99%; Treated (cfu/mL) [9]: 82 cfu/mL; sterilizing rate [9]: >99.999%
CCCCCCCCCC(=O)OCC[N+](C)(C)CCC[N+](C)(C)CCOC(=O)CCCCCCCCC [Example C10-Cl, reference compound]	–	–	–	–	–	–	–	–	–	–	–	–	–	Treated (cfu/mL) [7]: 4.3 × 10^5 cfu/mL; sterilizing rate [7]: 99.978%; Treated (cfu/mL) [8]: 3.5 × 10^3 cfu/mL; sterilizing rate [8]: >99.99%; Treated (cfu/mL) [9]: 1.2 × 10^2 cfu/mL; sterilizing rate [9]: >99.999%
CCCCCCCCSCCC(=O)OCC[N+](C)(C)CCC[N+](C)(C)CCOC(=O)CCSCCCCCCCC [Example C8-S-NO3]	–	–	–	–	–	–	–	–	–	1.4 × 10^2 cfu/mL	>99.999%	13 cfu/mL	>99.999%	bactericidal rate (Table 2, 0.0015625% and 0.00078125% aqueous solutions, Escherichia coli): above 99.999%; Treated (cfu/mL) [10]: 4.5 × 10^4 cfu/mL; sterilizing rate [10]: >99.99%; Treated (cfu/mL) [11]: 2.5 × 10^2 cfu/mL; sterilizing rate [11]: >99.99%; Treated (cfu/mL) [12]: 13 cfu/mL; sterilizing rate [12]: >99.999%
CCCCCCCCSCCC(=O)OCC[N+](C)(C)CCC[N+](C)(C)CCOC(=O)CCSCCCCCCCC [Example C8-S-Br]	–	–	–	–	–	–	–	–	–	1.1 × 10^3 cfu/mL	>99.99%	75 cfu/mL	>99.999%	–
[Cl][Fe]([Cl])[Cl] [FeCl3, reference compound]	–	–	–	–	6.2 × 10^8 cfu/mL	No bactericidal effect	did not show any antibacterial performance	4.3 × 10^7 cfu/mL	No bactericidal effect	–	–	–	–	–
O=[N+]([O-])[O-].[Ag+] [AgNO3, reference compound]	–	–	–	–	1.3 × 10^8 cfu/mL	No bactericidal effect	did not show any antibacterial performance	2.2 × 10^7 cfu/mL	No bactericidal effect	–	–	–	–	–
[Cl][Cu][Cl] [CuCl2, reference compound]	–	–	–	–	4.9 × 10^8 cfu/mL	No bactericidal effect	did not show any antibacterial performance	3.2 × 10^7 cfu/mL	No bactericidal effect	–	–	–	–	–
CCCCCCSCCC(=O)OCC[N+](C)(C)CCC[N+](C)(C)CCOC(=O)CCSCCCCCC [Example C6-S-Cl]	4.0 × 10^5 cfu/mL	98.621%	3.2 × 10^3 cfu/mL	99.989%	–	–	–	–	–	–	–	–	–	–
